Data from US20070092576A1, “Compositions containing opioid antagonists” (Adolor Corporation, priority 2005, published 2007).

Assays:
analgesia = assay: Propensity for reversing analgesia after oral administration; format: in vivo; conditions: administered orally; compared with alvimopan
[1] = Solubility of the drug substance; format: physicochemical; conditions: for solubility in water: dihydrate

solubility in water [1] | SMILES | propensity for reversing analgesia (analgesia) | solubility as a function of pH ([1]; acid pH versus basic pH) | solubility in water ([1]; listed as compound of formula (II))
 | C[C@H]1CN(C[C@H](Cc2ccccc2)C(=O)O)CC[C@@]1(C)c1cccc(O)c1 [(3R, 4R, S)-Q-CH2CH(CH2(C6H5))C(O)OH, (αS,3R,4R)-4-(3-hydroxyphenyl)-3,4-dimethyl-α-(phenylmethyl)-1-piperidinepropanoic acid monohydrate] | much greater propensity for undesirably reversing analgesia than alvimopan |  | 
extremely low solubility in water | C[C@H]1CN(C[C@H](Cc2ccccc2)C(=O)NCC(=O)O)CC[C@@]1(C)c1cccc(O)c1 [Alvimopan, [[2(S)-[[4(R)-(3-hydroxyphenyl)-3(R),4-dimethyl-1-piperidinyl]methyl]-1-oxo-3-phenylpropyl]amino]acetic acid dihydrate] |  | more soluble at an acid pH than a basic pH | low solubility in water except at low or high pH conditions
